Experimental data: US20240294508A1, “RIP1 MODULATORS INCLUDING AZETIDINE CYCLIC UREAS, PREPARATIONS, AND USES THEREOF” (SIRONAX LTD., priority 2021, published 2024)

Tested on: HT-29 cells
Test: HT29 cells 0FBS assay in vitro: TNF-α/SMAC mimetic/zVAD-FMK induced necroptosis, CellTiter-Glo cell viability (RIP1 inhibitory activity)
Format: cell-based
Conditions: Homo sapiens, FBS free medium, TNF-α (10 ng/ml) + SMAC mimetic (6 uM) + zVAD-FMK (10 μM), 20 hours, geometric mean EC50
Outline: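 HT-29 cells (5,000/well, overnight) switched to FBS-free McCOY's 5A with TNF-α (10 ng/ml), SMAC mimetic (6 uM) and zVAD-FMK (10 μM) to drive necroptosis, plus compound, for 20 hours at 37° C. Viability read by CellTiter-Glo luminescence; geometric mean EC50 from 10-point duplicate dose-response.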

Structure (SMILES)	EC50 [µM]
Cc1cn(C)c(-c2cc(OC3CN(C(=O)N4N=CC[C@H]4c4cc(F)cc(C#N)c4)C3)c(F)cn2)n1 [Compound 23, (S)-3-(1-(3-((2-(1,4-dimethyl-1H-imidazol-2-yl)-5-fluoropyridin-4-yl)oxy)azetidine-1-carbonyl)-4,5-dihydro-1H-pyrazol-5-yl)-5-fluorobenzonitrile]	0.0001 to 0.1
Cc1cnn(C)c1-c1cc(OC2CN(C(=O)N3N=CCC3c3cscn3)C2)c(F)cn1 (stereo not drawn) [Compound 95, (3-((2-(1,4-dimethyl-1H-pyrazol-5-yl)-5-fluoropyridin-4-yl)oxy)azetidin-1-yl)(5-(thiazol-4-yl)-4,5-dihydro-1H-pyrazol-1-yl)methanone]	0.0001 to 0.1
Cc1cnn(C)c1-c1ccc(F)c(OC2CN(C(=O)N3N=CC[C@H]3c3cc(F)cc(C#N)c3)C2)n1 [Compound 53, (S)-3-(1-(3-((6-(1,4-dimethyl-1H-pyrazol-5-yl)-3-fluoropyridin-2-yl)oxy)azetidine-1-carbonyl)-4,5-dihydro-1H-pyrazol-5-yl)-5-fluorobenzonitrile]	0.0001 to 0.1
Cc1n[nH]c(C)c1-c1cc(OC2CN(C(=O)N3N=CC[C@H]3c3cc(F)cc(C#N)c3)C2)c(F)cn1 [Compound 19, (S)-3-(1-(3-((2-(3,5-dimethyl-1H-pyrazol-4-yl)-5-fluoropyridin-4-yl)oxy)azetidine-1-carbonyl)-4,5-dihydro-1H-pyrazol-5-yl)-5-fluorobenzonitrile]	0.0001 to 0.1
Cc1cnn(C)c1-c1cc(OC2CN(C(=O)N3N=CCC3c3cncs3)C2)c(F)cn1 (stereo not drawn) [Compound 91, (3-((2-(1,4-dimethyl-1H-pyrazol-5-yl)-5-fluoropyridin-4-yl)oxy)azetidin-1-yl)(5-(thiazol-5-yl)-4,5-dihydro-1H-pyrazol-1-yl)methanone]	0.0001 to 0.1
Cc1c(N)nn(C)c1-c1cc(OC2CN(C(=O)N3N=CC[C@H]3c3cncc(C#N)c3)C2)c(F)cn1 [Compound 62, (S)-5-(1-(3-((2-(3-amino-1,4-dimethyl-1H-pyrazol-5-yl)-5-fluoropyridin-4-yl)oxy)azetidine-1-carbonyl)-4,5-dihydro-1H-pyrazol-5-yl)nicotinonitrile]	0.0001 to 0.1
Cc1cc(-c2cc(OC3CN(C(=O)N4N=CC[C@H]4c4cncc(F)c4)C3)c(F)cn2)n(C)n1 [Compound 29, (S)-(3-((2-(1,3-dimethyl-1H-pyrazol-5-yl)-5-fluoropyridin-4-yl)oxy)azetidin-1-yl)(5-(5-fluoropyridin-3-yl)-4,5-dihydro-1H-pyrazol-1-yl)methanone]	0.0001 to 0.1
Cn1ncc(C#N)c1-c1csc(OC2CN(C(=O)N3N=CC[C@H]3c3cc(F)cc(F)c3)C2)n1 [Compound 150, (S)-5-(2-((1-(5-(3,5-difluorophenyl)-4,5-dihydro-1H-pyrazole-1-carbonyl)azetidin-3-yl)oxy)thiazol-4-yl)-1-methyl-1H-pyrazole-4-carbonitrile]	0.0001 to 0.1
Cc1nc(C2CC=NN2C(=O)N2CC(Oc3cc(-c4c(C)cnn4C)ncc3F)C2)cs1 (stereo not drawn) [Compound 96, (3-((2-(1,4-dimethyl-1H-pyrazol-5-yl)-5-fluoropyridin-4-yl)oxy)azetidin-1-yl)(5-(2-methylthiazol-4-yl)-4,5-dihydro-1H-pyrazol-1-yl)methanone]	0.0001 to 0.1
Cc1cc[nH]c(=O)c1-c1cc(OC2CN(C(=O)N3N=CC[C@H]3c3cc(F)cc(F)c3)C2)c(F)cn1 [Compound 166, (S)-4-((1-(5-(3,5-difluorophenyl)-4,5-dihydro-11H-pyrazole-1-carbonyl)azetidin-3-yl)oxy)-5-fluoro-4′-methyl-[2,3′-bipyridin]-2′(1′H)-one]	0.1 to 1
Cn1ncc(Cl)c1-c1cc(OC2CN(C(=O)N3N=CC[C@H]3c3cncc(F)c3)C2)c(F)cn1 [Compound 43, (S)-(3-((2-(4-chloro-1-methyl-1H-pyrazol-5-yl)-5-fluoropyridin-4-yl)oxy)azetidin-1-yl)(5-(5-fluoropyridin-3-yl)-4,5-dihydro-1H-pyrazol-1-yl) methanone]	0.0001 to 0.1
Cn1nccc1-c1cc(OC2CN(C(=O)N3N=CC[C@H]3c3cncc(F)c3)C2)c(F)cn1 [Compound 27, (S)-(3-((5-fluoro-2-(1-methyl-1H-pyrazol-5-yl)pyridin-4-yl)oxy)azetidin-1-yl)(5-(5-fluoropyridin-3-yl)-4,5-dihydro-1H-pyrazol-1-yl)methanone]	0.0001 to 0.1
